The target in one experiment is T1, Ephrin type-B receptor 1 (Rattus norvegicus, UniProt P09759).
T1 sequence (P09759 whole entry): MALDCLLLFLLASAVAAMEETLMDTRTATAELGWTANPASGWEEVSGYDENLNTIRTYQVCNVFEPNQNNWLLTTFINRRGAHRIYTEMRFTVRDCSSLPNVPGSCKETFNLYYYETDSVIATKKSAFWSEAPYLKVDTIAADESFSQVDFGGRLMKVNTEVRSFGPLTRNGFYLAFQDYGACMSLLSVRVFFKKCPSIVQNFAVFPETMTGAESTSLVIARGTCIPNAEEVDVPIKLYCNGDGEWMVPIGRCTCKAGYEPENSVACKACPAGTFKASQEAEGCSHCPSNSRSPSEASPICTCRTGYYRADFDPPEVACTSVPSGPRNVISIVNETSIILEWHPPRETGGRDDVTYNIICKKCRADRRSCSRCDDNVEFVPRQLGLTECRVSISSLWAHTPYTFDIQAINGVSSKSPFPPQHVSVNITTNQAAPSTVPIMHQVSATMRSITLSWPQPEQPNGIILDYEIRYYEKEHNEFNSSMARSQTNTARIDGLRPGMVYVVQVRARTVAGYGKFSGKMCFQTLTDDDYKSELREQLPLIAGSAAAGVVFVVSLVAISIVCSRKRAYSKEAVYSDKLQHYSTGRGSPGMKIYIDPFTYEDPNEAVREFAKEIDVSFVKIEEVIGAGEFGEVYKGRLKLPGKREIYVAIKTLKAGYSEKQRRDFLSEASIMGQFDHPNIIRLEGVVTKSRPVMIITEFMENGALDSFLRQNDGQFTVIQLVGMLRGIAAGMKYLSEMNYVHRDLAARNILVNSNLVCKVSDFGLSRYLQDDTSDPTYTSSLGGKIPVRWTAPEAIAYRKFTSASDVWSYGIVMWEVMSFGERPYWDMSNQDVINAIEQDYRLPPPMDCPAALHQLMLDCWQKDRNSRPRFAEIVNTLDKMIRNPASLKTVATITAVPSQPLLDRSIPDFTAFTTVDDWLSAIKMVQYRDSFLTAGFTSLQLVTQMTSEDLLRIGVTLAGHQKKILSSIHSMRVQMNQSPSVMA
In words: Displacement of biotinylated Fc-tagged ephrin-B1 from N/C-terminal recombinant rat EphB1 (Met18 to Gln538 residues) preincubated for 1 hr followed by ephrin-B1-Fc addition and measured after 4 to 5 hrs by ELISA assay. On the technique in general: ELISA stands for enzyme-linked immunosorbent assay.

For a further experiment, the target named is T2, Ephrin type-B receptor 3 (Mus musculus, UniProt P54754).
T2 sequence (P54754 whole entry): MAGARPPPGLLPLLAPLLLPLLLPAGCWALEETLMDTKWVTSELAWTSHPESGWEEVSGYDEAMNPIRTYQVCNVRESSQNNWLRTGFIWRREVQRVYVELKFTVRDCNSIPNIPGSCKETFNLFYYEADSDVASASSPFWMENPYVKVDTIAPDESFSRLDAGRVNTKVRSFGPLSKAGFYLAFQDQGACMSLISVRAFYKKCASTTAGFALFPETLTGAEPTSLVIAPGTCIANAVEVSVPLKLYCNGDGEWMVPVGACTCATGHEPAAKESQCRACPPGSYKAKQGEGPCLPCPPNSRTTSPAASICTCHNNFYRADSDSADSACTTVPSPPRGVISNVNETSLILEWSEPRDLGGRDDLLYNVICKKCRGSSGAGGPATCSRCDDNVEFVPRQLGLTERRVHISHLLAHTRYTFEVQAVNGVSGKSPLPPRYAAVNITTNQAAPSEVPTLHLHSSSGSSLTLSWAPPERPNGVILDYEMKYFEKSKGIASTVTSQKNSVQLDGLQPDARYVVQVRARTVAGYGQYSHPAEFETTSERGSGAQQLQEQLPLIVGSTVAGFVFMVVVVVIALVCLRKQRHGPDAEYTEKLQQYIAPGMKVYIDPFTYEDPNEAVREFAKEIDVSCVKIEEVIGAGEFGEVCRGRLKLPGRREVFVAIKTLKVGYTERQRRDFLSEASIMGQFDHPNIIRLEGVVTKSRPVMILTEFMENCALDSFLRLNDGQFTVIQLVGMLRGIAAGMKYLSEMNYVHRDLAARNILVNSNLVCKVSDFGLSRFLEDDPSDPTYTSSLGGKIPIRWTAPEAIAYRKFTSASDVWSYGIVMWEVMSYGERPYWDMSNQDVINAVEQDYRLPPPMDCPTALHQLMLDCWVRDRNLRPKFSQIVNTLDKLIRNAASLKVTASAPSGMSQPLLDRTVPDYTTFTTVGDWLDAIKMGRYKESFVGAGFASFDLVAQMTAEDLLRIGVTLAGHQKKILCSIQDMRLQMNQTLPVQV
Nature of the experiment: Displacement of biotinylated Fc-tagged ephrin-B1 from recombinant mouse EphB3 (Leu 30 to Thru537 residues) preincubated for 1 hr followed by ephrin-B1-Fc addition and measured after 4 to 5 hrs by ELISA assay.

Some results are limits rather than exact numbers.

`C[C@H](CCC(=O)N[C@H](CC(=O)O)Cc1cn(S(=O)(=O)c2ccc(C(F)(F)F)cc2)c2ccccc12)[C@H]1CC[C@H]2[C@@H]3CC=C4C[C@@H](O)CC[C@]4(C)[C@H]3CC[C@]12C`: the IC50 on Ephrin type-B receptor 1 and at Ephrin type-B receptor 3 was above 30 µM each time.
For `C[C@H](CCC(=O)N[C@H](CC(=O)O)Cc1cn(S(=O)(=O)c2ccccc2)c2ccccc12)[C@H]1CC[C@H]2[C@@H]3CC=C4C[C@@H](O)CC[C@]4(C)[C@H]3CC[C@]12C`, the IC50 at Ephrin type-B receptor 1 and at Ephrin type-B receptor 3 was above 30 µM each time.
Consider `C[C@H](CCC(=O)N[C@H](CC(=O)O)Cc1c[nH]c2ccccc12)[C@H]1CC[C@H]2[C@@H]3CC=C4C[C@@H](O)CC[C@]4(C)[C@H]3CC[C@]12C`, for which the figures for the IC50 on Ephrin type-B receptor 1 and on Ephrin type-B receptor 3 were 7.7 µM and 9.8 µM, respectively.

For orientation: IC50 means the concentration at which inhibition is half-maximal.

The values are drawn from ChEMBL document CHEMBL5614382, “Discovery of a new 1-(phenylsulfonyl)-1H-indole derivative targeting the EphA2 receptor with antiproliferative activity on U251 glioblastoma cell line” (Eur J Med Chem, 2024).
